Laboratory results as given in patent publication EP4806904A1, “POLYPEPTIDE AND USE THEREOF” (Sichuan Gooddoctor Panxi Pharmaceutical Co. Ltd, priority 2023, dated 2026).

Columns and labels:
PSD95 and SYP = assay: Western blot of PSD95 and SYP in hippocampus and cortex; format: in vivo, SD rats; conditions: treatment for 14 days, vs Vehicle group, P<0.05
Protocol: (§1) Experimental animals, model establishment, grouping and drug administration are the same as in Example 5.
(§2) The cortical index was calculated for each group of rats 14 days after ischemia-reperfusion injury. tMCAO rats were treated with the polypeptide compound 1 of the invention for 14 days, and the expression of PSD95 and SYP was detected by Western blot.

tMCAO rats = assay: Cortical index 14 days after ischemia-reperfusion injury; format: in vivo, SD rats; conditions: 10 mg/kg, tail vein, treatment for 14 days, P<0.01
Protocol: as §1, §2

[1] = test system: Brain microvascular endothelial cells (BMECs) and brain microvascular smooth muscle cells (BMVSMCs); assay: In vitro angiogenesis assay, BMEC/BMVSMC co-culture on matrigel; format: cell-based, mouse; conditions: 0.1 mg/L, 48 h
In short: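 Mouse BMVSMCs (5×10^3) and BMECs (1×10^3) per well, passages 3-6, co-cultured on matrigel at 37 °C, 5% CO2. After medium change on day 4, polypeptide 0.1 mg/L or VEGFA 10/15/20 ng/L for 48 h; Hoechst/Calcein AM stained, imaged by high-content screening and angiogenesis quantified.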

[2] = test system: primary neural stem cells (NSCs); assay: Proliferation of primary neural stem cells, BrdU incorporation (Example 2.1); format: cell-based, SD rats; conditions: 0.02, 0.1, 0.5 mg/mL, 48 h, vs control group
Protocol: (§3) This part of the experiment requires feeding male and female rats in advance, then extracting hippocampal neural stem cells from newborn SD rats within 24 h of birth, culturing them to P3 for identification, and then using them for experiments.
(§4) Extraction and culture of primary neural stem cells (NSCs): Hippocampal neural stem cells were extracted from neonatal SD mice 24 h after birth. The procedure is as follows: first, the neonatal rats were disinfected by soaking in 75% ethanol, then transferred to a biological safety cabinet for manipulation under aseptic conditions. After the entire brain was removed from the neonatal mouse, it was immediately placed in cold D-Hanks solution to remove non-neural tissue. Under a dissecting microscope, the meninges were carefully removed and the hippocampal structures on both sides were separated. […]
Medium-sized neurospheres formed from P3-P4 generations were centrifuged at 800 rpm for 5 min, the supernatant was discarded, a small amount of complete medium was added and pipetted to form a single-cell suspension, the cells were resuspended, counted, and seeded at 1.0 x 10^5 cells/mL into 24-well plates coated with 25 µg/mL PLL. […] Immunofluorescence staining was performed 4 h later, and the cells were then observed and photographed under a fluorescence microscope. The BrdU-positive cell rate was statistically analyzed.

[3] = test system: primary neural stem cells (NSCs); assay: Differentiation of primary neural stem cells, MAP-2/GFAP immunofluorescence (Example 2.2); format: cell-based, SD rats; conditions: 0.02, 0.1, 0.5 mg/mL, 4 days, vs control group
Protocol: as §3
as §4, with “separated. The tissue was mechanically broken into flocculent pieces with a scalpel, pipetted, and the tissue sample was transferred to a 15 mL centrifuge tube and centrifuged at 800 rpm for 5 min.” for “separated.”
Medium-sized neurospheres cultured at P3-P4 were collected, centrifuged at 800 rpm for 5 min, and the supernatant was discarded. […] Subsequently, the images were observed and collected under a fluorescence microscope, and the mean fluorescence intensities of MAP-2 and GFAP were statistically analyzed respectively.

[4] = test system: primary neural stem cells (NSCs); assay: Differentiation of primary neural stem cells, βIII-tubulin fluorescence and Neurite Outgrowth Assay; format: cell-based, SD rats; conditions: 100 µg/mL
In short: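 Hippocampal NSCs from newborn SD rats, passage 3, seeded at 5×10^4 cells/mL in 2% FBS DMEM/F12 differentiation medium. Polypeptide at final 100 µg/mL (NGF 50 ng/mL positive control) for 4 days. βIII-tubulin immunofluorescence intensity and neurite outgrowth quantified by high-content imaging.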

[5] = significance vs blank control group
[6] = 4 days, significance vs blank control group

**Q.** For “H-ALPAPGTL-OH [Compound 1, H-Ala-Leu-Pro-Ala-Pro-Gly-Thr-Leu-OH]”, which “expression of PSD95” value (PSD95 and SYP) is on record?
**A.** Its value is “significantly increased”.

**Q.** What about the “expression of SYP” value (PSD95 and SYP) of the same substance?
**A.** The value was “significantly increased”.

**Q.** What about the cortical index (tMCAO rats) of the same substance?
**A.** Its cortical index is “significantly increased”.

**Q.** And the Branch length [1, 5]?
**A.** Its Branch length is “** (**p < 0.01)”.

**Q.** What about the Cell count [1, 5] of the same substance?
**A.** Its Cell count is “*** (***p < 0.001)”.

**Q.** What about the Number of intersections [1, 5] of the same substance?
**A.** The Number of intersections was “* (*p < 0.05)”.

**Q.** And the angiogenesis-promoting effects ([1]; vs normal group, in words)?
**A.** The angiogenesis-promoting effects was “exhibited angiogenesis-promoting effects”.

**Q.** And the “percentage of BrdU-positive cells” value [2]?
**A.** Its value is “significantly increased”.

**Q.** What about the “mean fluorescence intensity of GFAP” value [3] of the same substance?
**A.** The value was “significantly elevated”.

**Q.** And the “mean fluorescence intensity of MAP-2” value [3]?
**A.** The value was “significantly elevated”.

**Q.** What about the “neurite outgrowth (total neurite length, maximum neurite length, neurite terminals, neurite initiation points)” value ([4]; 4 days, Neurite Outgrowth Assay, in words) of the same substance?
**A.** Its value is “promote neurite outgrowth”.

**Q.** What about the Longest neurite length [4, 6] of the same substance?
**A.** Its Longest neurite length is “*** (***p < 0.001)”.

**Q.** What about the “Neurite initiation points (branches)” value [4, 6] of the same substance?
**A.** Its value is “*** (***p < 0.001)”.

**Q.** What about the “Number of neurite terminals” value [4, 6] of the same substance?
**A.** The value was “*** (***p < 0.001)”.

**Q.** What about the Total neurite length [4, 6] of the same substance?
**A.** Its Total neurite length is “** (**p < 0.01)”.

**Q.** And the “mean fluorescence intensity of the neuronal marker protein βIII-tubulin” value ([4]; 4 days, vs blank control group, in words)?
**A.** The value was “significant increase”.

**Q.** What about the “differentiation of NSCs into neuronal cells” value ([4]; conclusion based on the results of the two analytical methods) of the same substance?
**A.** Its value is “promote the differentiation of NSCs into neuronal cells with stable effects”.

**Q.** And the Average fluorescence intensity ([4]; βIII-tubulin, 4 days, significance vs blank control group)?
**A.** The Average fluorescence intensity was “** (**p < 0.01)”.
